Assay results reported in ChEMBL document CHEMBL5523740, “Discovery of Potent and Selective c-Met Degraders for Hepatocellular Carcinoma Treatment” (J Med Chem, 2024).
Active and inactive are the calls of the source. No cut-off for these calls is given here.

How the values were obtained:
MHCC97H [1] = experiment: Induction of apoptosis in human MHCC97H cells assessed as necrotic cells incubated for 24 hrs by Annexin-V-FITC/PI staining based flow cytometry analysis; assay type: functional, cell-based; details: dose 3-100 nM
BaF3 = experiment: Antiproliferative activity against mouse BaF3 cells harboring TPR-MET fusion protein incubated for 72 hrs by CellTiter-Glo reagent based assay; assay type: functional, cell-based; details: BaF3, 72 h
MHCC97H [2] = experiment: Antitumor activity against human MHCC97H cells xenografted in BALB/c mouse assessed as tumor growth inhibition at 10 mg/kg, ip qd for 22 days and measured every 2 days; assay type: functional; details: 528 h, time 22 day, read-out: TGI
[3] = target: T1, Hepatocyte growth factor receptor (Homo sapiens, UniProt P08581); experiment: Induction of c-Met degradation in human MHCC97H cells at 500 nM after 24 hrs in presence of MG-132 by Western blotting analysis; assay type: cell-based
MHCC97H [4] = experiment: Inhibition of colony formation in human MHCC97H cells at 3 to 100 nM incubated for 2 weeks by crystal violet staining based assay; assay type: functional, cell-based; details: dose 3-100 nM
MHCC97H [5] = experiment: Induction of apoptosis in human MHCC97H cells assessed as viable cells at 100 nM incubated for 24 hrs by Annexin-V-FITC/PI staining based flow cytometry analysis (reference value: 86.3%); assay type: functional; details: read-out: Activity
[6] = Toxicity in BALB/c mouse xenografted with human MHCC97H cells assessed as heart lesions at 20 mg/kg, po qd for 22 days and measured every 2 days by H and E staining based assay; assay type: organism-based; details: in vivo, 528 h, time 22 day
[7] = Toxicity in BALB/c mouse xenografted with human MHCC97H cells assessed as lung lesions at 20 mg/kg, po qd for 22 days and measured every 2 days by H and E staining based assay; assay type: organism-based; details: in vivo, 528 h, time 22 day
Mus musculus [8] = experiment: Downregulation of phosphorylated c-Met level in BALB/c mouse tumor xenografted with human MHCC97H cells at 20 mg/kg, po qd for 22 days and measured every 2 days by Western blotting analysis; assay type: functional, organism-based; details: time 22.0 day
MHCC97H [9] = experiment: Antitumor activity against human MHCC97H cells xenografted in BALB/c mouse assessed as tumor growth inhibition at 20 mg/kg, po qd for 22 days and measured every 2 days by Ki67 staining based analysis; assay type: functional, organism-based; details: time 22.0 day
[10] = Half-life in Sprague-Dawley rat at 10 mg/kg, po by LC-MS/MS method; assay type: ADME, organism-based; details: in vivo
[11] = target: T1, Hepatocyte growth factor receptor; experiment: Induction of c-Met degradation in human MHCC97H cells at 500 nM after 3 to 24 hrs by Western blotting analysis; assay type: cell-based; details: time 3-24 hrs
MHCC97H [12] = experiment: Induction of apoptosis in human MHCC97H cells assessed as necrotic cells at 3 nM incubated for 24 hrs by Annexin-V-FITC/PI staining based flow cytometry analysis (reference value: 1.77%); assay type: functional
[13] = Tmax in Sprague-Dawley rat at 1 mg/kg, iv by LC-MS/MS method; assay type: ADME, organism-based; details: in vivo
MHCC97H [14] = experiment: Induction of cell cycle arrest in human MHCC97H cells assessed as accumulation of cells at G1 phase at 100 nM incubated for 24 hrs by PI staining based flow cytometry analysis (reference value: 70.4%); assay type: functional
MHCC97H [15] = experiment: Induction of cell cycle arrest in human MHCC97H cells assessed as accumulation of cells at G1 phase at 10 nM incubated for 24 hrs by PI staining based flow cytometry analysis (reference value: 70.4%); assay type: functional
[16] = Toxicity in BALB/c mouse xenografted with human MHCC97H cells assessed as liver lesions at 10 mg/kg, ip qd for 22 days and measured every 2 days by H and E staining based assay; assay type: organism-based; details: in vivo, 528 h, time 22 day
[17] = AUC(0 to infinity) in Sprague-Dawley rat at 10 mg/kg, po by LC-MS/MS method; assay type: ADME, organism-based; details: in vivo
Mus musculus [18] = experiment: Downregulation of phosphorylated c-Met level in BALB/c mouse tumor xenografted with human MHCC97H cells at 10 mg/kg, ip qd for 22 days and measured every 2 days by Western blotting analysis; assay type: functional, organism-based; details: time 22.0 day
MHCC97H [19] = experiment: Induction of apoptosis in human MHCC97H cells assessed as early apoptotic cells at 100 nM incubated for 24 hrs by Annexin-V-FITC/PI staining based flow cytometry analysis (reference value: 7.70%); assay type: functional
[20] = target: T1, Hepatocyte growth factor receptor; experiment: Induction of c-Met degradation in human HepG2 cells incubated for 24 hrs by Western blotting analysis; assay type: cell-based; details: dose 63-100 nM
MHCC97H [21] = experiment: Induction of cell cycle arrest in human MHCC97H cells assessed as accumulation of cells at G2 phase at 100 nM incubated for 24 hrs by PI staining based flow cytometry analysis (reference value: 19.1%); assay type: functional
MHCC97H [22] = experiment: Induction of apoptosis in human MHCC97H cells assessed as early apoptotic cells at 10 nM incubated for 24 hrs by Annexin-V-FITC/PI staining based flow cytometry analysis (reference value: 7.70%); assay type: functional
Mus musculus [23] = experiment: Downregulation of c-Met protein level in BALB/c mouse tumor xenografted with human MHCC97H cells at 10 mg/kg, ip qd for 22 days and measured every 2 days by Western blotting analysis; assay type: functional, organism-based; details: time 22.0 day
MHCC97H [24] = experiment: Induction of apoptosis in human MHCC97H cells assessed as viable cells at 3 nM incubated for 24 hrs by Annexin-V-FITC/PI staining based flow cytometry analysis (reference value: 86.3%); assay type: functional; details: read-out: Activity
[25] = Toxicity in BALB/c mouse xenografted with human MHCC97H cells assessed as kidney lesions at 20 mg/kg, po qd for 22 days and measured every 2 days by H and E staining based assay; assay type: organism-based; details: in vivo, 528 h, time 22 day
[26] = Toxicity in BALB/c mouse xenografted with human MHCC97H cells assessed as reduction in body weight at 10 mg/kg, ip qd for 22 days and measured every 2 days; assay type: organism-based; details: in vivo, 528 h, time 22 day
Mus musculus [27] = experiment: Downregulation of phosphorylated STAT3 level in BALB/c mouse tumor xenografted with human MHCC97H cells at 10 mg/kg, ip qd for 22 days and measured every 2 days by Western blotting analysis; assay type: functional, organism-based; details: time 22.0 day
[28] = Half-life in Sprague-Dawley rat at 1 mg/kg, iv by LC-MS/MS method; assay type: ADME, organism-based; details: in vivo
MHCC97H [29] = experiment: Induction of apoptosis in human MHCC97H cells assessed as viable cells at 10 nM incubated for 24 hrs by Annexin-V-FITC/PI staining based flow cytometry analysis (reference value: 86.3%); assay type: functional; details: read-out: Activity
MHCC97H [30] = experiment: Induction of apoptosis in human MHCC97H cells assessed as late apoptotic cells at 100 nM incubated for 24 hrs by Annexin-V-FITC/PI staining based flow cytometry analysis (reference value: 4.24%); assay type: functional

T1 sequence (P08581 whole entry): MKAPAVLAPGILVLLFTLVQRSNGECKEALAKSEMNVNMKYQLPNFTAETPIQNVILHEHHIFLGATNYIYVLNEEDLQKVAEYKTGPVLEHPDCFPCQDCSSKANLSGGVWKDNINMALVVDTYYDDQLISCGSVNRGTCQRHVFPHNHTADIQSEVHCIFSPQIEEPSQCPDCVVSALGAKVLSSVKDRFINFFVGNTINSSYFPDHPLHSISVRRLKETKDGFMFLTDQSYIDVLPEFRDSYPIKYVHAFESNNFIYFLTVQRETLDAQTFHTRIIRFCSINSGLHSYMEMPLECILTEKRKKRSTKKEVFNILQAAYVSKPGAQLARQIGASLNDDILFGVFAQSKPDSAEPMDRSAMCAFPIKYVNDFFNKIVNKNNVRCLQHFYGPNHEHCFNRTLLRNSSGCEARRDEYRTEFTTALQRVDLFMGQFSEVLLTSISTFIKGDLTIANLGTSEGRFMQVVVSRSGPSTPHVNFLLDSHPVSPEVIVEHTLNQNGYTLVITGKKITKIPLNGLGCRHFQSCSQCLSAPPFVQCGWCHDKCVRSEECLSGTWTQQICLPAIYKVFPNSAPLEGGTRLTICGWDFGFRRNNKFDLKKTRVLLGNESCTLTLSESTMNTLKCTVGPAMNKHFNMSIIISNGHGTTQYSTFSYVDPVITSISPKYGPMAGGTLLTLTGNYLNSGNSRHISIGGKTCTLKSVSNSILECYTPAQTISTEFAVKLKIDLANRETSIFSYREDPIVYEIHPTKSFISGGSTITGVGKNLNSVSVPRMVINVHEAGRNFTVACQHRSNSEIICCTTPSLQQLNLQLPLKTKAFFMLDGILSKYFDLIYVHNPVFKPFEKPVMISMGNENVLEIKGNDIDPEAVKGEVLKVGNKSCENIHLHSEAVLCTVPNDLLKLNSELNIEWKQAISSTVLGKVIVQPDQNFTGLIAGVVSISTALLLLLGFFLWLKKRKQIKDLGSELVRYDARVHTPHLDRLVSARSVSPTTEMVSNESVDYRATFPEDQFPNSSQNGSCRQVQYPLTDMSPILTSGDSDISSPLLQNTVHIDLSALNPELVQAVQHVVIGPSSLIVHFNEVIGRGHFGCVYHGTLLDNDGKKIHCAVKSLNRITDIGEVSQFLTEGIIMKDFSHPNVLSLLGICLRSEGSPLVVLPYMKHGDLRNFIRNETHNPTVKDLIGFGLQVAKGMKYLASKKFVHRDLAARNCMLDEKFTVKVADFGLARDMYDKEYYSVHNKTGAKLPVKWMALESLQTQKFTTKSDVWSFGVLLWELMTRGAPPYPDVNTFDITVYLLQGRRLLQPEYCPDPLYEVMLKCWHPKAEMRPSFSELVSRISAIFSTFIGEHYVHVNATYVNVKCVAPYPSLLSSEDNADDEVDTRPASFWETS

IC50 (BaF3): 6.2 nM
Activity [3]: inactive
half-life [10]: 2.57 h
Activity [11]: Active
Tmax [13]: 4.98 min
AUC(0-inf) [17]: 74.5 ng·h/mL
Activity [20]: Dose-Dependent Effect
half-life [28]: 2.5 h
SMILES: N#Cc1cccc(-c2ccc(=O)n(Cc3cccc(-c4ncc(OCC5CCN(CCCCCC(=O)NCC67CC8CC(CC(C8)C6)C7)CC5)cn4)c3)n2)c1
Activity (MHCC97H [1]): Dose-Dependent Effect
inhibition in vivo at 10 mg/kg (MHCC97H [2]): 61.5%
inhibition (MHCC97H [4]): Active
viability at 0.1 µM (MHCC97H [5]): 52.7%
Activity [6]: Non-Toxic
Activity [7]: Non-Toxic
Activity (Mus musculus [8]): Active
Activity (MHCC97H [9]): Active
Activity (MHCC97H [12]): 0.74%
Activity (MHCC97H [14]): 79.1%
Activity (MHCC97H [15]): 77.6%
Activity [16]: Non-Toxic
Activity (Mus musculus [18]): Active
Activity (MHCC97H [19]): 39.9%
Activity (MHCC97H [21]): 13.6%
Activity (MHCC97H [22]): 19.7%
Activity (Mus musculus [23]): Active
viability at 0.003 µM (MHCC97H [24]): 79.5%
Activity [25]: Non-Toxic
Activity [26]: Non-Toxic
Activity (Mus musculus [27]): Active
viability at 0.01 µM (MHCC97H [29]): 72.7%
Activity (MHCC97H [30]): 6.06%
